Measured values reported in patent publication US9481885B2, “Methods and compositions related to miR-21 and miR-29a, exosome inhibition, and cancer metastasis” (Ohio State Innovation Foundation, priority 2011, dated 2016).

Tested on: peritoneal macrophages
Assay: ELISA for TNF-α and IL-6 on peritoneal macrophages from WT and TLR7−/− mice
Format: cell-based, mouse
Conditions: Dotap formulations of miRNA
Description: Experiments were performed to determine whether the miRNA-TLR interaction is functional, and assessed whether the miRNAs of interest induce the secretion of cytokines such as TNF-α and IL-6, whose production is increased by TLR activation. We isolated peritoneal macrophages from WT and TLR7^−/− B6 mice. Cells were treated with Dotap alone or with Dotap formulations of miR-16, -21, -29a, and -147, and an ELISA for TNF-α and IL-6 was performed. In the functional assays, included also were miR-147 and -574-5p, because they have a mature viral-derived sequence that induces cytokine production through the activation of TLR8 and TLR7, similar to that of RNA33 (FIG. 14A). […] We also treated spleen cells from WT and TLR7^−/− mice with the same miRNAs and assessed expression of CD69, an early activation marker of cells which has a role in inflammation and proliferation and which also is activated by TLR3. Polyinosinic:polycytidylic acid [poly (I:C)], a known agonist of TLR3, served as positive control.
For all experiments, cells were treated with 15 μg of HPLC-purified synthetic miRNAs (Integrated DNA Technologies) complexed with Dotap Liposomal Transfection Reagent (Roche) as previously described.
Macrophages derived from the peritoneal cavity were isolated from WT and TLR7^−/− age- and sex-matched mice.
PBMC were isolated from heparinized blood of healthy donors by Ficoll-Paque (Pharmacia) centrifugation (500×g) following the manufacturer's instructions and were plated immediately for stimulation. Human PBMCs or murine peritoneal macrophages (300,000 cells) were stimulated with synthetic miRNAs for 24 h; then ELISAs for TNF-α and IL-6 were performed on the conditioned media using Multi-Analyte ELISArray Kits (SABiosciences) following the manufacturer's instructions.

[1] = peritoneal macrophages of TLR7−/− B6 mice
[2] = peritoneal macrophages of WT B6 mice

## miR-147: synthetic mature miRNA (SEQ ID NO: 3), sequence similar to RNA33, Dotap formulation (GUGUGUGGAAAUGCUUCUGC; DOTAP formulation, further chemistry not given here)
[1]
  IL-6 production: not
  TNF-α production: not
[2]
  IL-6 production: increased
  TNF-α production: increased
